Laboratory results reported in US20120039917A1, “IMMUNO[…]” (priority 2008, published 2012).

Key:
Assay type in all cases: cell-based
proliferating T cells = experiment: PMET activity measured by WST-1/PMS reduction; conditions: Homo sapiens, T-cell, read-out: IC50 inhibition of PMET (WST-1/PMS reduction)
Description: (§1) Immediately prior to experiments, frozen PBMC were thawed, centrifuged at 1400 rpm in a Multifuge 3 s (Heraeus) for 4 min, washed in RPMI+10% FCS and resuspended in T cell medium (RPMI+10% FCS+10 μM 2-mercaptoethanol (Sigma), 1×glutamine, 1×non-essential amino acids (Gibco)) at 2×10^6 cells/mL. Cells (2×10^5) were activated by adding 10 μg/mL anti-CD3 and 5 μg/mL anti-CD28 and 20 U/mL IL-2 per well. Cells were incubated at 37° C. in a humidified incubator maintained at 5% CO2 for 4 to 5 days until large numbers of large spherical aggregates or “bursts” of lymphocytes were observed. Activated proliferating T cells were pooled from the wells for further experiments. Resting T cells were incubated for the same length of time but in the presence of 20 U/mL IL-2 only.
(§2) WST-1/PMS reduction rates were measured in a microplate format as described previously (Berridge and Tan, 1998). […] WST-1 reduction was measured in real time at 450 nm over 30-60 min in a BMG FLUOstar OPTIMA plate reader.
(§3) The effect of PXD on PMET (FIG. 1A) was investigated by measuring reduction of the cell impermeable tetrazolium dye, WST-1, in the presence of its obligate intermediate electron acceptor, 1 mPMS (WST-1/PMS reduction). […] The effect of PXD on proliferation (FIG. 1B) was determined by measuring intracellular reduction of the tetrazolium salt, MTT.

resting T cells = experiment: PMET activity measured by WST-1/PMS reduction; conditions: Homo sapiens, T-cell, read-out: IC50 inhibition of PMET (WST-1/PMS reduction)
Description: as §1, §2, §3

AML-derived HL60 = experiment: Sensitivity of cell types to PXD, viability by AV/PI staining; conditions: Homo sapiens, HL-60; HL60, 10 μM PXD for 24 h; read-out: [% viable blasts after PXD exposure]/[% viable blasts after 0.1% DMSO exposure]
Description: (§4) FIG. 6. Sensitivity of different cell types to PXD. Different cell types were incubated with 10 μM PXD for 24 h and viability was determined by AV/PI staining and reported as [% viable blasts after PXD exposure]/[% viable blasts after 0.1% DMSO exposure]. Percentage values are as follows: AML-derived HL60: 16±5 and HL60p°: 54±6, ALL-derived MOLT-4: 44±4, MM-derived U226: 59±6 and RPMI 8226: 12±4, primary AML blasts: 64±5, primary ALL blasts: 23±4, normal BM: 89±5, proliferating T cells: 69±4, resting T cells: 98±6. Results from cell lines are presented as the average±SEM of at least 3 separate experiments, results from bone marrow samples are presented as the average±SD of single experiments performed in duplicate.
(§5) Cell lines were grown in RPMI-1640 medium (GIBCO-BRL, Grand Island, N.Y.) supplemented with 5% (v/v) fetal calf serum, 2 mM […], 25 μg/mL penicillin, 25 μg/mL streptomycin, 50 μg/mL uridine and 1 mM pyruvate to densities of 1-2×10^6 cells/mL (exponential stage), at 37° C. in a humidified incubator maintained at 5% CO2.
(§6) Cells were centrifuged at 1400 rpm in a Multifuge 3 s (Heraeus) for 4 min at room temperature, washed in phosphate buffered saline solution, pH 7.3 (PBS) and resuspended in Annexin V binding buffer. Small aliquots (0.5-1×10^6 cells) were transferred to 1.5 mL tubes and spun at 1400 rpm in a Multifuge 3 s (Heraeus) for 4 min. Most supernatant was removed and 5 μL PI and 5 μL FITC-labelled AV was added to the wet pellets which were vortexed. After 30 min in the dark on ice, 500 μl of AV binding buffer was added, the cells were centrifuged for 2 min at 1400 rpm, washed once with AV binding buffer and resuspended in 300 μL of AV binding buffer in FACS tubes. Staining was analyzed by flow cytometry using a Becton Dickinson Canto II FACS analyser using FlowJo (TreeStar) software.

HL60p° = experiment: as above; conditions: Homo sapiens, 10 μM PXD for 24 h, read-out: [% viable blasts after PXD exposure]/[% viable blasts after 0.1% DMSO exposure]
Description: as §4, §5, §6

MM-derived U226 = experiment: as above; conditions: Homo sapiens; U226, 10 μM PXD for 24 h; read-out: [% viable blasts after PXD exposure]/[% viable blasts after 0.1% DMSO exposure]
Description: as §4, §5, §6

SMILES: Oc1ccc(C2=Cc3ccc(O)cc3OC2)cc1 [PXD, Isoflav-3-en-4′,7-diol]
- IC50 (proliferating T cells): 46 µM
- IC50 (resting T cells): > 200 µM
- viability at 10 µM (AML-derived HL60): 16 ± 5%
- viability at 10 µM (HL60p°): 54 ± 6%
- viability at 10 µM (MM-derived U226): 59 ± 6%
